# In patent US20050004163A1, “3-(diarylmethylene)-8-azabicyclo[3.2.1]octane derivatives” (priority 2000, published 2005):
# Structures can show the parent of a compound that is named as a salt. Where two headings read alike, the source gives them in different places.
# Target: T1, μ-opioid receptor (Rattus norvegicus, UniProt P33535)
# T1 construct: the forebrains are homogenized in Tris buffer in a Teflon®-glass homogenizer; from tissue; host or cells: forebrain of male Wistar rats (particulate membrane preparation)
# Assay: Rat brain μ-opioid receptor binding assay ([3H]DAMGO)
# Procedure: Rat Brain μ-Opioid Receptor Binding Assay
# Male, Wistar rats (150-250 g, VAF, Charles River, Kingston, N.Y.) are killed by cervical dislocation and their brains removed and placed immediately in ice cold Tris HCl buffer (50 mM, pH 7.4). The forebrains are separated from the remainder of the brain by a coronal transection, beginning dorsally at the colliculi and passing ventrally through the midbrain-pontine junction. After dissection, the forebrains are homogenized in Tris buffer in a Teflon®-glass homogenizer. The homogenate is diluted to a concentration of 1 g of forebrain tissue per 100 mL Tris buffer and centrifuged at 39,000×G for 10 min. The pellet is resuspended in the same volume of Tris buffer with several brief pulses from a Polytron homogenizer. This particulate preparation is used for the μ-opioid binding assays. […] The tubes and filters are rinsed three times with 4 mL of 10 mM HEPES (pH 7.4) and the radioactivity associated with the filter circles determined using Formula 989 scintillation fluid (New England Nuclear, Boston, Mass.) in a scintillation counter.
# The data are used to calculate either the % inhibition compared to control binding (when only a single concentration of test compound is evaluated) or a Ki value (when a range of concentrations is tested).
# % Inhibition is calculated as follows: [formula]
# Ki value is calculated using the LIGAND (Munson, P. J. and Rodbard, D., Anal. Biochem. 107: 220-239, 1980) data analysis program.
# [1] = 10 nM solutions of the compounds, read-out: MOR binding Ki
# T1 sequence (P33535 whole entry): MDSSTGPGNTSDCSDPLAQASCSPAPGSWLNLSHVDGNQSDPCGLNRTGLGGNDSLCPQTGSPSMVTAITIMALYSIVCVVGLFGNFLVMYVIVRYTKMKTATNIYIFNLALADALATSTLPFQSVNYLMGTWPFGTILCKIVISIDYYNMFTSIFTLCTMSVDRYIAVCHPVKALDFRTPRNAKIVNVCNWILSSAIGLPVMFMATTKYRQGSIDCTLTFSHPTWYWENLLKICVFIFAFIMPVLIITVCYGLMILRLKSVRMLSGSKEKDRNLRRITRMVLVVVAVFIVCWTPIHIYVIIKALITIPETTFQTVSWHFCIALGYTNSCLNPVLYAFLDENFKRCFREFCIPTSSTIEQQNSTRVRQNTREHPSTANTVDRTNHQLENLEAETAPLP
SMILES,Ki (MOR binding Ki),Ki [1]
"CCNC(=O)c1ccc(C=C2C[C@H]3CC[C@@H](C2)N3CCc2ccccc2)cc1 (single isomer, unassigned) [Cpd 41, (+)—N-Ethyl-4-(8-phenethyl-8-aza-bicyclo[3.2.1]oct-3-ylidenemethyl)-benzamide]",124 nM,
"CCNC(=O)c1ccc(C=C2C[C@H]3CC[C@@H](C2)N3CCc2ccccc2)cc1 (single isomer, unassigned) [Cpd 42, (−)—N-Ethyl-4-(8-phenethyl-8-aza-bicyclo[3.2.1]oct-3-ylidenemethyl)-benzamide]",5.99 nM,
"CCNC(=O)c1ccc(C(=C2CC3CCC(C2)N3CC=C(C)C)c2cccc(C(=O)O)c2)cc1 (single isomer, unassigned) [Cpd 44]",,58.3 nM
"CCNC(=O)c1ccc(C(=C2CC3CCC(C2)N3CC=C(C)C)c2cccc(C(=O)O)c2)cc1 (single isomer, unassigned) [Cpd 45]",,23.7 nM
"CCNC(=O)c1ccc(C(Br)=C2C[C@H]3CC[C@@H](C2)N3)cc1 (single isomer, unassigned) [Cpd 92]",115 nM,
"CCNC(=O)c1ccc(C(=C2C[C@H]3CC[C@@H](C2)N3Cc2ccsc2)c2ccc(CO)cc2)cc1 (single isomer, unassigned) [Cpd 196, N-Ethyl-4-[(4-hydroxymethyl-phenyl)-(8-thiophen-3-ylmethyl-8-aza-bicyclo[3.2.1]oct-3-ylidene)-methyl]-benzamide]",4.1 nM,
"CCNC(=O)c1ccc(C(=C2CC3CCC(C2)N3)c2nnn[nH]2)cc1 (single isomer, unassigned) [Cpd 201]",12300 nM,
"CCNC(=O)c1ccc(C(=C2CC3CCC(C2)N3)c2nnn[nH]2)cc1 (single isomer, unassigned) [Cpd 202]",8120 nM,
"CCNC(=O)c1ccc(C(=C2CC3CCC(C2)N3Cc2ccco2)c2nnn[nH]2)cc1 (single isomer, unassigned) [Cpd 203]",5450 nM,
"CCNC(=O)c1ccc(C(=C2CC3CCC(C2)N3Cc2ccsc2)c2ccc(CO)cc2)cc1 (single isomer, unassigned) [Cpd 206]",,80.1 nM
"CCNC(=O)c1ccc(C(C#N)=C2CC3CCC(C2)N3Cc2ccoc2)cc1 (single isomer, unassigned) [Cpd 209]",2.59 nM,
"CCNC(=O)c1ccc(C(C#N)=C2CC3CCC(C2)N3Cc2ccoc2)cc1 (single isomer, unassigned) [Cpd 210]",2.3 nM,
"CCNC(=O)c1ccc(C(Br)=C2CC3CCC(C2)N3Cc2ccoc2)cc1 (single isomer, unassigned) [Cpd 211]",0.23 nM,
"CCNC(=O)c1ccc(C(Br)=C2CC3CCC(C2)N3Cc2ccoc2)cc1 (single isomer, unassigned) [Cpd 212]",38.5 nM,
"CCNC(=O)c1ccc(C(=C2CC3CCC(C2)N3Cc2ccsc2)c2cccc(-c3nnn[nH]3)c2)cc1 (single isomer, unassigned) [Cpd 215]",3120 nM,
"CCNC(=O)c1ccc(C(=C2CC3CCC(C2)N3Cc2ccsc2)c2cccc(-c3nnn[nH]3)c2)cc1 (single isomer, unassigned) [Cpd 216]",12.1 nM,
"CCNC(=O)c1ccc(C(=C2C[C@H]3CC[C@@H](C2)N3C(=O)Cc2ccccc2)c2cccnc2)cc1 (single isomer, unassigned) [Cpd 217]",3.07 nM,
"CCNC(=O)c1ccc(C=C2CC3CCC(C2)N3CC(N)Cc2ccccc2)cc1 (centres unmarked) [Cpd 1, 4-[8-(2-Amino-3-phenyl-propyl)-8-aza-bicyclo[3.2.1]oct-3-ylidenemethyl]-N-ethyl-benzamide Hydrochloride]",340 nM,
CCNC(=O)c1ccc(C(=C2CC3CCC(C2)N3Cc2ccc3ccccc3n2)c2cccc(F)c2)cc1 [Cpd 3],74.1 nM,
CCNC(=O)c1ccc(C(=C2CC3CCC(C2)N3Cc2ccc(NC(C)=O)cc2)c2ccc3c(c2)OCO3)cc1 [Cpd 5],73 nM,
CCNC(=O)c1ccc(C(=C2CC3CCC(C2)N3Cc2ncc[nH]2)c2ccc3c(c2)OCO3)cc1 [Cpd 6],35.8 nM,

SMILES,Ki (MOR binding Ki),Ki [1]
CCNC(=O)c1ccc(C(=C2CC3CCC(C2)N3Cc2ccsc2)c2ccc3c(c2)OCO3)cc1 [Cpd 7],,3.05 nM
CCNC(=O)c1ccc(C(=C2CC3CCC(C2)N3Cc2ccco2)c2ccc3c(c2)OCO3)cc1 [Cpd 8],7.41 nM,
CCNC(=O)c1ccc(C(=C2CC3CCC(C2)N3Cc2ccc3ccccc3n2)c2ccc3c(c2)OCO3)cc1 [Cpd 9],34.1 nM,
CCNC(=O)c1ccc(C(=C2CC3CCC(C2)N3Cc2ccoc2)c2ccc3c(c2)OCO3)cc1 [Cpd 10],,1.06 nM
CCNC(=O)c1ccc(C(=C2CC3CCC(C2)N3Cc2[nH]cnc2C)c2ccc3c(c2)OCO3)cc1 [Cpd 11],46.2 nM,
CCNC(=O)c1ccc(C(=C2CC3CCC(C2)N3Cc2sccc2C)c2ccc3c(c2)OCO3)cc1 [Cpd 12],128 nM,
CCNC(=O)c1ccc(C(=C2CC3CCC(C2)N3Cc2ccc3ccccc3n2)c2ccccn2)cc1 [Cpd 13],,123 nM
CCNC(=O)c1ccc(C(=C2CC3CCC(C2)N3Cc2ccc(NC(C)=O)cc2)c2cnc3ccccc3c2)cc1 [Cpd 14],959 nM,
CCNC(=O)c1ccc(C(=C2CC3CCC(C2)N3Cc2ccsc2)c2cnc3ccccc3c2)cc1 [Cpd 15],,127 nM
CCNC(=O)c1ccc(C(=C2CC3CCC(C2)N3Cc2ccco2)c2cnc3ccccc3c2)cc1 [Cpd 16],,82 nM
CCNC(=O)c1ccc(C(=C2CC3CCC(C2)N3Cc2ccoc2)c2cnc3ccccc3c2)cc1 [Cpd 17],20.3 nM,
CCNC(=O)c1ccc(C(=C2CC3CCC(C2)N3Cc2sccc2C)c2cnc3ccccc3c2)cc1 [Cpd 18],561 nM,
CCNC(=O)c1ccc(C(=C2CC3CCC(C2)N3Cc2ccc3ccccc3n2)c2cccc(C#N)c2)cc1 [Cpd 20],129 nM,
CCNC(=O)c1ccc(C(Br)=C2CC3CCC(C2)N3Cc2ccc(NC(C)=O)cc2)cc1 [Cpd 21],,48.2 nM
CCNC(=O)c1ccc(C(Br)=C2CC3CCC(C2)N3Cc2ncc[nH]2)cc1 [Cpd 22],58.5 nM,
CCNC(=O)c1ccc(C(Br)=C2CC3CCC(C2)N3Cc2ccsc2)cc1 [Cpd 23],,6.23 nM
CCNC(=O)c1ccc(C(Br)=C2CC3CCC(C2)N3Cc2ccco2)cc1 [Cpd 24],,21.7 nM
CCNC(=O)c1ccc(C(Br)=C2CC3CCC(C2)N3Cc2ccc3ccccc3n2)cc1 [Cpd 25],,95 nM
CCNC(=O)c1ccc(C(Br)=C2CC3CCC(C2)N3Cc2ccoc2)cc1 [Cpd 26],1.86 nM,
CCNC(=O)c1ccc(C(Br)=C2CC3CCC(C2)N3Cc2[nH]cnc2C)cc1 [Cpd 27],99.8 nM,
CCNC(=O)c1ccc(C(Br)=C2CC3CCC(C2)N3Cc2sccc2C)cc1 [Cpd 28],,69.6 nM

SMILES,Ki (MOR binding Ki),Ki [1]
CCNC(=O)c1ccc(C(=C2CC3CCC(C2)N3Cc2ccc3ccccc3n2)c2cnccn2)cc1 [Cpd 30],15 nM,
CCNC(=O)c1ccc(C=C2CC3CCC(C2)N3Cc2ccc(NC(C)=O)cc2)cc1 [Cpd 31],25.6 nM,
CCNC(=O)c1ccc(C=C2CC3CCC(C2)N3Cc2ncc[nH]2)cc1 [Cpd 32],,385 nM
CCNC(=O)c1ccc(C=C2CC3CCC(C2)N3Cc2ccsc2)cc1 [Cpd 33],198 nM,
CCNC(=O)c1ccc(C=C2CC3CCC(C2)N3Cc2ccco2)cc1 [Cpd 34],1420 nM,
CCNC(=O)c1ccc(C=C2CC3CCC(C2)N3Cc2ccc3ccccc3n2)cc1 [Cpd 35],,532 nM
CCNC(=O)c1ccc(C=C2CC3CCC(C2)N3Cc2ccoc2)cc1 [Cpd 36],,109 nM
CCNC(=O)c1ccc(C=C2CC3CCC(C2)N3Cc2[nH]cnc2C)cc1 [Cpd 37],1470 nM,
CCNC(=O)c1ccc(C=C2CC3CCC(C2)N3Cc2sccc2C)cc1 [Cpd 38],,236 nM
CCNC(=O)c1ccc(C(Br)=C2CC3CCC(C2)N3Cc2c[nH]cn2)cc1 [Cpd 39],,83.7 nM
CCNC(=O)c1ccc(C(Br)=C2CC3CCC(C2)N3Cc2cccs2)cc1 [Cpd 40],8.97 nM,
"CCNC(=O)c1ccc(C(=C2CC3CCC(C2)N3CC#N)c2ccccc2)cc1 [Cpd 43, 4-[(8-Cyanomethyl-8-aza-bicyclo[3.2.1]oct-3-ylidene)-phenyl-methyl]-N-ethyl-benzamide]",721 nM,
CCNC(=O)c1ccc(C=C2CC3CCC(C2)N3Cc2c[nH]cn2)cc1 [Cpd 46],5480 nM,
"CCNC(=O)c1ccc(C(=C2CC3CCC(C2)N3CC=C(C)C)c2cccc(C(=O)O)c2)cc1 [Cpd 47, 3{(4-Ethylcarbamoyl-phenyl)-[8-(3-methyl-but-2-enyl)-8-aza-bicyclo[3.2.1]oct-3-ylidene]-methyl}-benzoic acid]",125 nM,
"CCN(CC)C(=O)c1ccc(C=C2CC3CCC(C2)N3)cc1 [Cpd 48, 4-(8-Aza-bicyclo[3.2.1]oct-3-ylidenemethyl)-N,N-diethylbenzamide]",25800 nM,
"CCN(CC)C(=O)c1ccc(C(Br)=C2CC3CCC(C2)N3)cc1 [Cpd 49, 4-[(8-Aza-bicyclo[3.2.1]oct-3-ylidene)-bromo-methyl]-N,N-diethylbenzamide]",100000 nM,
"CCNC(=O)c1ccc(C=C2CC3CCC(C2)N3CCc2ccccc2)cc1 [Cpd 50, N-Ethyl-4-(8-phenethyl-8-aza-bicyclo[3.2.1]oct-3-ylidenemethyl)-benzamide]",44.3 nM,
CCN(CC)C(=O)c1ccc(C=C2CC3CCC(C2)N3Cc2ccsc2)cc1 [Cpd 52],,6490 nM
CCCCN1C2CCC1CC(=Cc1ccc(C(=O)NCC)cc1)C2 [Cpd 53],,262 nM
CCNC(=O)c1ccc(C=C2CC3CCC(C2)N3Cc2ccc3c(c2)OCO3)cc1 [Cpd 54],130 nM,
